Reference: patent US12240904B2, “Use of anti-PD-1 antibody in combination with famitinib in preparation of drug for treating tumors” (Jiangsu Hengrui Medicine Co., Ltd., priority 2018, dated 2025)
Where two headings read alike, the source gives them in different places. Each block holds one compound with its values, some of them ahead of it.

Columns and labels:
[1] = system: advanced/metastatic colorectal cancer; conditions: 25 mg, once a day, cited from earlier work
[2] = clinical study, pharmacokinetics of Compound B; type: in vivo, human; conditions: for AUC: human, blood, oral
From the text: In the present disclosure, “AUC” refers to the area surrounded by the pharmacokinetic blood drug concentration curve versus time axis. This parameter is an important indicator for evaluating the degree of drug absorption, reflecting the exposure profiles of the drug in vivo. Since the blood drug concentration in pharmacokinetic studies can only be observed up to a certain time point t, AUC can be expressed in the following two means: AUC (0-t) and AUC (0-∞), wherein AUC (0-t) is derived from the trapezoidal area, and AUC (0-∞) is calculated by the formula: AUC (0-∞)=AUC (0-t)+end point concentration/end point elimination rate. The AUC mentioned in the present application refers to the averaged AUC0-24 of the patient reaching a steady state after a single administration or multiple administrations, preferably the averaged AUC0-24 of the patient reaching a steady state after multiple administrations (i.e. AUCss).
Compound A: intravenous injection, 200 mg, once every 3 weeks, 1 cycle every 3 weeks; Compound B: 20 mg or 15 mg, oral administration, once a day.
Among the 12 subjects who participated in the pharmacokinetic study, PK blood was collected from 9 subjects.

TYRO3 (Rse) = target: T1, TYRO3 (Rse) (Homo sapiens, UniProt Q06418); assay: IC50Profiler in vitro kinase activity; type: biochemical; conditions: ATP 10 μM
T1 construct: purchased
T1 sequence (Q06418 41-890): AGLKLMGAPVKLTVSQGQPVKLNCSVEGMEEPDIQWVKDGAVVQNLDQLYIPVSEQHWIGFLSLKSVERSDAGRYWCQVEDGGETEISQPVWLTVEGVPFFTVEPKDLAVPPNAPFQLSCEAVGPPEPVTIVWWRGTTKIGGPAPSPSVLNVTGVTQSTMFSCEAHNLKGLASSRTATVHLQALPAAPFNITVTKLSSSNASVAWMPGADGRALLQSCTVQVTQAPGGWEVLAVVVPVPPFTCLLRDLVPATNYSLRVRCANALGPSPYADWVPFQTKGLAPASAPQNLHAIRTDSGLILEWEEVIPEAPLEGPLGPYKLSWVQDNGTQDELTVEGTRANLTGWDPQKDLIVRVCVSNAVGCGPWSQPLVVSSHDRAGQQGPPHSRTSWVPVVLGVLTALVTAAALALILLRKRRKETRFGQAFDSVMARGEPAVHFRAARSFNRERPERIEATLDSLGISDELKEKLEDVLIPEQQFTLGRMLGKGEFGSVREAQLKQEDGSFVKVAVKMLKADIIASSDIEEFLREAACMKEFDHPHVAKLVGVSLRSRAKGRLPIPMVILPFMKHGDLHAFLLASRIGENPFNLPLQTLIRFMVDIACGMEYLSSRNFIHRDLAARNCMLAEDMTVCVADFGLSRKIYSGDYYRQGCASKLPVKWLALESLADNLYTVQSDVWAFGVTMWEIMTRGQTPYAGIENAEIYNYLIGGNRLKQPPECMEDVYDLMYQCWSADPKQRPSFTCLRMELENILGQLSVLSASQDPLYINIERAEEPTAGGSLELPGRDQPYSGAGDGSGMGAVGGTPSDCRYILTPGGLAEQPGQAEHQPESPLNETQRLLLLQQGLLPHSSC
Description: (§1) (1) Experimental Procedures for IC50Profiler™
(§2) Appropriate amounts of kinase and peptide substrates were separately mixed with different concentrations of famitinib malate (1 nM, 3 nM, 10 nM, 30 nM, 100 nM, 300 nM, 1 μM, 3 μM, 10 μM) and incubated for 60 min at room temperature. Magnesium acetate and [gamma-33P]-ATP were added to initiate the kinase-catalyzed reaction, and the reaction was carried out at room temperature for 40 minutes. After the reaction was finished, 3% phosphoric acid solution was added to terminate the reaction. 10 μL of the reaction mixture was taken and added onto a P30 filter membrane to be filtered. The membrane was washed with 75 mM phosphate buffer for 3 times and washed once with methanol to remove free [gamma-33P]-ATP. The protein was fixed, and the membrane was dried. The liquid scintillation analyzer was used to determine the amount of peptide substrate by counting the amount of 33P.

Mer = target: T2, Mer (Homo sapiens, UniProt Q12866); assay: IC50Profiler in vitro kinase activity; type: biochemical; conditions: ATP 10 μM
T2 construct: purchased
T2 sequence (Q12866 21-999): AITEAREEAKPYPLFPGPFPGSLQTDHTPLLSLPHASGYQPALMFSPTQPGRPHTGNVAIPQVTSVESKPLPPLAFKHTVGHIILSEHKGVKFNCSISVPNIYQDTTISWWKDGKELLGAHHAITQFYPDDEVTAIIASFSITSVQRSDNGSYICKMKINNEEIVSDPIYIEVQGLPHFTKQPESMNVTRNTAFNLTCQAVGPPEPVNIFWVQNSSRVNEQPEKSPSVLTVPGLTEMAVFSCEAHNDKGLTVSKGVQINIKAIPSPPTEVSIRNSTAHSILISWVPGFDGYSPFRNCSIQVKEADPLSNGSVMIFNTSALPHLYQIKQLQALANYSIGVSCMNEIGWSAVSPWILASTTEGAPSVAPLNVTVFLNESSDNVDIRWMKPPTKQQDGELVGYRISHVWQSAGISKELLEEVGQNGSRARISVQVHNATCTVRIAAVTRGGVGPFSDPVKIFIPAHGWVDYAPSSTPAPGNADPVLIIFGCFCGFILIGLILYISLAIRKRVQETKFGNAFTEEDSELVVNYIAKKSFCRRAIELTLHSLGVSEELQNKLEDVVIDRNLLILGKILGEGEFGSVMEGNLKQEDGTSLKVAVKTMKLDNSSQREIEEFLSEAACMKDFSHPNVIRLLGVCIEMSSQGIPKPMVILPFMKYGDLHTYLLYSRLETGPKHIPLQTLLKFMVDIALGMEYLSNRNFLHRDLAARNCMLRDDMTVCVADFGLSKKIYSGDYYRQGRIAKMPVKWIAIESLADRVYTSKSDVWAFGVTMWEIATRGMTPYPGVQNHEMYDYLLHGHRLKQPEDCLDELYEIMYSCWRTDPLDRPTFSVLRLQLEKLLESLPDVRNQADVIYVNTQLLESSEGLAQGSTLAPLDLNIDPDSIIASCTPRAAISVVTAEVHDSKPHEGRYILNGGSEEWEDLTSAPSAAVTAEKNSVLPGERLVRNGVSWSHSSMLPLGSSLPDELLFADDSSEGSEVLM
Description: as §1, §2

Axl = target: T3, Axl (Homo sapiens, UniProt P30530); assay: IC50Profiler in vitro kinase activity; type: biochemical; conditions: ATP 10 μM
T3 construct: purchased
T3 sequence (P30530 26-894): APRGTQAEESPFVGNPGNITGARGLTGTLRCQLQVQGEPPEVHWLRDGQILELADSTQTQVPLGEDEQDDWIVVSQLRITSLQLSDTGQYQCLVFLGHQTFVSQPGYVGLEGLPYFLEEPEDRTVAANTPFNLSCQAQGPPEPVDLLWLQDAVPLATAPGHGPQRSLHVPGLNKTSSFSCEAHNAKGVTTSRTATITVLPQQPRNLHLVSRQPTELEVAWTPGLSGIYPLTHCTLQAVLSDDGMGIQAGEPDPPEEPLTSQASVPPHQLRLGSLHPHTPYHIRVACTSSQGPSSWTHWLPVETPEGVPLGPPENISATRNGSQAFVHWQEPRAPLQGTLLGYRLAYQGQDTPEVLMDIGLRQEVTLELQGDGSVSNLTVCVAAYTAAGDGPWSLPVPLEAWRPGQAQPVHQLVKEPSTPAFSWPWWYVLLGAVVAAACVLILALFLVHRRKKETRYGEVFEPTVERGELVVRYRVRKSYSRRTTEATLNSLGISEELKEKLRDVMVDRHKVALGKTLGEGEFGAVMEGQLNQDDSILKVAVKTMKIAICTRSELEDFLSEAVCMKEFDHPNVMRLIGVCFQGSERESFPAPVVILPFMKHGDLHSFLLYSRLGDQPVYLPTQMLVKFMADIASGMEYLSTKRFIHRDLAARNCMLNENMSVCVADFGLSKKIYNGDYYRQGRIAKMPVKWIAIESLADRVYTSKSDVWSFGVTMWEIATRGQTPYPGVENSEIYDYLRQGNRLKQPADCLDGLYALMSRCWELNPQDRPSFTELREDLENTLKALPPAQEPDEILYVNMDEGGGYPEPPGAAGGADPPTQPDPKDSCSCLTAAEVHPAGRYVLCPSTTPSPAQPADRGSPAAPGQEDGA
Description: as §1, §2

kidney cancer = conditions: Compound B 25 mg, q.d., alone; cited from earlier work
[3] = administration alone, 20 mg (n = 8)
[4] = co-administration with Compound A, 20 mg (n = 9)

SMILES: CCN(CC)CCN1CCc2[nH]c(/C=C3\C(=O)Nc4ccc(F)cc43)c(C)c2C1=O [famitinib]
improvement of progression-free survival (PFS) compared to the placebo group ([1]; period of 42 days): 1.3 months
HR (PFS vs placebo) [1]: 0.596
adverse events [1]: adverse events are under control
disease control rate (DCR) [1]: 59.8%
median survival (mOS) [1]: 7.5 months
objective remission rate (ORR) [1]: 2.2%

Css, max, Geomean (Geometric % CV) [2, 3]: 59.9 (44.4) ng/mL
Css, max, Mean ± SD [2, 3]: 0.0643 ± 0.0238 µg/mL
Css, min, Geomean (Geometric CV %) [2, 3]: 29.8 (56.6) ng/mL
Css, min, Mean ± SD [2, 3]: 0.0332 ± 0.0146 µg/mL
Tss, max, Median (Min, Max) [2, 3]: 6 (2, 8) h
exposure amount of Compound B compared to administration alone ([2]; co-administrated with Compound A): increased
Css, max, Geomean (Geometric % CV) [2, 4]: 71.6 (24.3) ng/mL
Css, max, Mean ± SD [2, 4]: 0.0734 ± 0.0168 µg/mL
Css, min, Geomean (Geometric CV %) [2, 4]: 36.6 (28.8) ng/mL
Css, min, Mean ± SD [2, 4]: 0.038 ± 0.011 µg/mL
Tss, max, Median (Min, Max) [2, 4]: 6 (4, 10) h
AUC ([2]; 20 mg, administration alone, 20 mg (n = 8), read-out: AUCss, Geomean (Geometric % CV)): 1.09 µg·h/mL
AUC ([2]; 20 mg, administration alone, 20 mg (n = 8), read-out: AUCss, Mean ± SD): 1.19 ± 0.465 µg·h/mL
AUC ([2]; co-administration with Compound A, 20 mg (n = 9), read-out: AUCss, Geomean (Geometric % CV)): 1.33 µg·h/mL
AUC ([2]; co-administration with Compound A, 20 mg (n = 9), read-out: AUCss, Mean ± SD): 1.36 ± 0.3 µg·h/mL
IC50 (TYRO3 (Rse)): 0.326 µM
IC50 (Mer): 0.00435 µM
IC50 (Axl): 0.0368 µM
SMILES: CCN(CC)CCN1CCc2[nH]c(/C=C3\C(=O)Nc4ccc(F)cc43)c(C)c2C1=O [Compound B, famitinib malate]
ORR (kidney cancer): 36%
